Measurements from patent US20240074997A1 (priority 2022, published 2024).
≈ marks a conversion by molar mass, not a printed value.

Tests used:
[1] = biological target: T1, glucocorticoid receptor recombinant human protein, ligand binding domain (Homo sapiens, UniProt P04150); assay: glucocorticoid receptor LBD coregulator-derived peptide array; type: biochemical; details: Example 2, 0.1 mM vs solvent 2% DMSO, FIG. 6
T1 construct: purchased Thermo Fisher Scientific A15668
T1 sequence (P04150 524-758 limits assumed): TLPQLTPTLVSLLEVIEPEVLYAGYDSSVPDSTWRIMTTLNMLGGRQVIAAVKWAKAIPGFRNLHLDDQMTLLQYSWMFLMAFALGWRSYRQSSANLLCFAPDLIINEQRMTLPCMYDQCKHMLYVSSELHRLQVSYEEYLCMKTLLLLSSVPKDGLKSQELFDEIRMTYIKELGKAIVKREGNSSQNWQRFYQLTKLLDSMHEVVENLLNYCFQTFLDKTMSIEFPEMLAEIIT
Protocol: EXAMPLE 1: Interactions between the glucocorticoid receptor ligand binding domain (LBD) and coregulator-derived peptides were determined using the method as described by Zalachoras et al 2009^xl. Each peptide array consisting of 11 coregulator peptides as described in Table 1 were incubated with a reaction mixture of 1 nM purified glucocorticoid receptor recombinant human protein, ligand binding domain, (Thermo Fisher Scientific, cat #A15668), ALEXA488-conjugated anti-Glutathione S-Transferase (GST) antibody and buffer F (PV4689, A-11131, and PV4547; Invitrogen). […] Incubation was performed at 20° C. on the peptide array, using one two arrays per condition. glucocorticoid receptor binding to each peptide on the array, reflected by fluorescent signal, was quantified by image analysis using R-based software (Precision Medicine Lab). […] Glucocorticoid receptor binding to each peptide on the array, reflected by fluorescent signal, was quantified by image analysis using R-based software (Precision Medicine Lab). […]
The use of glucocorticoid receptor LBD was as described in Experiment 1. […] Glucocorticoid receptor binding to each peptide on the array, reflected by fluorescent signal, was quantified by image analysis using R-based software (Precision Medicine Lab).

zebrafish larvae = assay: Zebrafish inflammation model (tail fin clip, neutrophil migration); type: in vivo; details: 4 hours, clipped 3 day old larvae, p<0.001 vs. Vehicle
Text: The details of this model have been described previously (Xie, Y., Meijer, […]. Modeling Inflammation in Zebrafish for the Development of Anti-inflammatory Drugs. Front. Cell Dev. Biol. 8, 620984 (2021)). In short, a zebrafish model with fluorescently labeled neutrophils is used. The tip of the tail fin of 3 day old zebrafish larvae are clipped. As a result, a local inflammatory response is initiated and evokes to leukocyte migration towards the wound. The number of attracted neutrophils is recorded and serves as parameters for inflammation. […] (Significance ***: p<0.001, as determined by Student's t-Test vs. Vehicle)

[2] = cited from earlier work
[3] = cited from earlier work; remark: listed apart in the source
[4] = cited from earlier work; remark: listed apart in the source
RARβ = biological target: T2, RARβ (Homo sapiens, UniProt P10826); details: cited from earlier work
T2 sequence (P10826 1-455): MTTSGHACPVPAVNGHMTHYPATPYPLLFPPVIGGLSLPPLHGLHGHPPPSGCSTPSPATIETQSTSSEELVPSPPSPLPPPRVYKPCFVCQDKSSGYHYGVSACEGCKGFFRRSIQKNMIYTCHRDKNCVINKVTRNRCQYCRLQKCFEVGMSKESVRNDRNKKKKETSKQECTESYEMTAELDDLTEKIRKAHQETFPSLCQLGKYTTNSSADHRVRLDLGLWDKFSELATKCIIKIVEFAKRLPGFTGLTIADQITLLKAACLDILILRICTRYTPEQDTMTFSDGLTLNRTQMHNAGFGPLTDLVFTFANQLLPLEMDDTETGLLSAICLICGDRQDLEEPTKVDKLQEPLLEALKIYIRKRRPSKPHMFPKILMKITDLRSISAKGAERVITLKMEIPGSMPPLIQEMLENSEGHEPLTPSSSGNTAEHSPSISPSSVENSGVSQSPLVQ

RARγ = biological target: T3, RARγ (Homo sapiens, UniProt P13631); details: cited from earlier work
T3 sequence (P13631 1-454): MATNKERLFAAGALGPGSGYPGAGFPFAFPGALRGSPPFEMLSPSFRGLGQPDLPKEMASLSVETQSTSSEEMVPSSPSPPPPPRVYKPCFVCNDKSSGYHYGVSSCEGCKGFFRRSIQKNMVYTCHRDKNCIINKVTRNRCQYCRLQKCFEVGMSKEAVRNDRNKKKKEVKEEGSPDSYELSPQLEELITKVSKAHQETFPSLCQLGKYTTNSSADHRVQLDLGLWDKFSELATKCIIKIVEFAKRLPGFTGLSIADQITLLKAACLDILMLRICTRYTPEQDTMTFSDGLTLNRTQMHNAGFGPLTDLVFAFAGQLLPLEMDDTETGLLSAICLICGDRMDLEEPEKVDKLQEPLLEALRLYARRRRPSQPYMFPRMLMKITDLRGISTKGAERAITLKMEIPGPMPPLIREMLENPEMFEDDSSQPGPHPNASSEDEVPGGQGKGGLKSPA

RM-1 cells = details: cited from earlier work
[5] = cited from earlier work; remark: listed apart in the source
glucocorticoid receptor = biological target: T4, glucocorticoid receptor (Homo sapiens, UniProt P04150); details: cited from earlier work
T4 sequence (P04150 1-777): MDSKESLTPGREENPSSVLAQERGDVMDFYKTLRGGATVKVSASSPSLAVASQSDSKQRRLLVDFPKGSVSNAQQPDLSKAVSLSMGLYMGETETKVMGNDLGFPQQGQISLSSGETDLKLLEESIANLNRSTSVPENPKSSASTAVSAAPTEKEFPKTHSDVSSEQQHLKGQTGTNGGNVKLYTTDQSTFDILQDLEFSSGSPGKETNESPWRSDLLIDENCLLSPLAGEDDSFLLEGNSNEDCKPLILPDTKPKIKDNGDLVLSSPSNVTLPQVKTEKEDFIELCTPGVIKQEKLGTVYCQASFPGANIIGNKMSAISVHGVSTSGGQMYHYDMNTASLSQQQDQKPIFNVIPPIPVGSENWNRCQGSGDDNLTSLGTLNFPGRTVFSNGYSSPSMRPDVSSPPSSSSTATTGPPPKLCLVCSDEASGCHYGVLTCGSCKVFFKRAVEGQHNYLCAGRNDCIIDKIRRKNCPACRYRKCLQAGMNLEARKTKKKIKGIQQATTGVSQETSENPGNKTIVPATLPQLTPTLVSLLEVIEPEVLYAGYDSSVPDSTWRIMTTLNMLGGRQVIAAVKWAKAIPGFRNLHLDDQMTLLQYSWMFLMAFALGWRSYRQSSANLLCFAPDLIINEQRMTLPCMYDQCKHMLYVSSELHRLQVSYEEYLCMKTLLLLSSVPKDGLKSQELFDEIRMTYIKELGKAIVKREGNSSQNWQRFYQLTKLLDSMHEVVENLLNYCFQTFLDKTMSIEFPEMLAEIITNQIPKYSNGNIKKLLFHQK

## CC1=C(/C=C/C(C)=C/C=C/C(C)=C/C(=O)O)C(C)(C)CCC1 [ATRA, all-trans retinoic acid]
[1]
  glucocorticoid receptor-modulating effect (binding profile): does not display any glucocorticoid receptor-modulating effect

## COc1ccc(-c2ccc3cc(C(=O)O)ccc3c2)cc1C12CC3CC(CC(C3)C1)C2 [Adapalene, 6-[3-(1-adamantyl)-4-methoxyphenyl]naphthalene-2-carboxylic acid]
Zebrafish larvae; 1 μM
  anti-inflammatory action (number of attracted neutrophils): significant anti-inflammatory action
[2]; 25° C.
  solubility in dimethyl sulfoxide: > 10000 µg/mL
  solubility in dimethylformamide: 5000 µg/mL (≈ 12.1 mM)
  solubility in ethanol: < 1000 µg/mL
  solubility in tetrahydrofuran: 5000 µg/mL (≈ 12.1 mM)
[2]
  solubility in water: poor solubility
[3]
  pKa: 4.23
  pKa (strongest acidic): 3.99
  pKa (strongest basic): −4.8
[4]; 0.3 M HCl solution, 10 min of boiling
  degradation in acidic condition: 28%
[4]; 2 M NaOH solution, boiled for 2 h
  stability in alkaline condition: stable
[4]; 80° C. for 10 min with 30% hydrogen peroxide solution
  degradation in oxidative conditions: 30%
[4]; 254 and 366 nm, 12 h
  degradation on exposure to UV light: 25%
RARβ
  affinity for RARβ: high affinity
RARγ
  affinity for RARγ: high affinity
RM-1 cells; dose-dependent
  migration ability of RM-1 cells (wound-healing assay): significantly suppressed
RM-1 cells; high doses
  invasiveness of RM-1 cells: decrease the invasiveness

## C[C@@H]1C[C@H]2[C@@H]3C[C@H](F)C4=CC(=O)C=C[C@]4(C)[C@@]3(F)[C@@H](O)C[C@]2(C)[C@@]1(OC(=O)C1C(C)(C)C1(C)C)C(=O)OCC#N [GW870086]
[5]; atopic dermatitis patients
  clinical efficacy in atopic dermatitis: did not achieve significant clinical efficacy
[5]; healthy adults
  skin atrophy: does not include skin atrophy

## C[C@H](NC(=O)[C@H]1CCCO1)[C@H](Oc1ccc(C(=O)O[C@H]2CCCN(C(=O)[C@H]3COC(=O)C3)C2)cc1)c1ccc(C2CC2)cc1 [LEO 134310]
Glucocorticoid receptor
  potency on transactivation: lower potency
  potency on transrepression: high potency

## C[C@H]1C[C@H]2[C@@H]3CCC4=CC(=O)C=C[C@]4(C)[C@@]3(Cl)[C@@H](O)C[C@]2(C)[C@@]1(O)C(=O)CO [beclomethasone]
Zebrafish larvae; 25 μM
  anti-inflammatory action (number of attracted neutrophils): significant anti-inflammatory action
